target: T1, human TGR5 (Homo sapiens, UniProt Q8TDU6); test: Cell-based TGR5 assay (cAMP generation, HTRF); conditions: HEK293 cells stably transfected with human TGR5; cAMP by HTRF; 30 minutes at 37° C.; read-out: pEC50 Human TGR5 (converted)
T1 construct: expressed in transfected cells; host or cells: HEK293
T1 sequence (Q8TDU6 1-330): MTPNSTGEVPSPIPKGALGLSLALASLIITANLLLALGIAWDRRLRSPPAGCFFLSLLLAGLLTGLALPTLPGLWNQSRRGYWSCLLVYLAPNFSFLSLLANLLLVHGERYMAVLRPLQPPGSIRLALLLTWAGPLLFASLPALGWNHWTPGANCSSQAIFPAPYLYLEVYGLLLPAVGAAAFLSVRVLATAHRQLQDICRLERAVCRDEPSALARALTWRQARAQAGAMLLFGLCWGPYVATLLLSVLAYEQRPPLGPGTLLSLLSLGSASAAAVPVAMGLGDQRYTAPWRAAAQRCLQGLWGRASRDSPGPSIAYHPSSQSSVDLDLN
Summary of the method: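 Read-out was HTRF detection of cAMP, converted to concentration via a standard curve and fitted (3-parameter logistic) for pEC50 and maximal response. Agonist stimulation used HEK293 cells stably transfected with human TGR5, incubated 30 min at 37° C in IBMX-containing buffer at 0.05 nM to 10 μM compound.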

SMILES	EC50 [nM]
Clc1cc(Cl)cc(CNC2(c3cnccc3-c3ccccc3OC3CC3)CC2)c1 [Compound I-44, 1-[4-(2-cyclopropoxyphenyl)pyridin-3-yl]-N-[(3,5-dichlorophenyl)methyl]cyclopropan-1-amine]	1260 to 10000
COc1ccccc1-c1ccncc1C1(OCc2cc(Cl)ccc2Cl)CC1 [Compound I-45, 3-[1-[(2,5-dichlorophenyl)methoxy]cyclopropyl]-4-(2-methoxyphenyl)pyridine]	< 100
Cc1cc(COC2(c3cnccc3-c3ccccc3OC3CC3)CC2)c(Cl)cc1CCCCN(CCCCCO)C(=O)NC[C@H](O)[C@@H](O)[C@H](O)[C@H](O)CO [Compound I-118, 1-{4-[5-chloro-4-({1-[4-(2-cyclopropoxyphenyl)pyridin-3-yl]cyclopropoxy}methyl)-2-methylphenyl]butyl}-1-(5-hydroxypentyl)-3-[(2S,3R,4R,5R)-2,3,4,5,6-pentahydroxyhexyl]urea]	< 100
O=C(O)CCCC(=O)N(CCCCc1cc(Cl)c(CNC2(c3cnccc3-c3ccccc3OC3CC3)CC2)cc1Cl)C[C@H](O)[C@@H](O)[C@H](O)[C@H](O)CO [Compound I-63, 4-[(4-[2,5-dichloro-4-[([1-[4-(2-cyclopropoxyphenyl)pyridin-3-yl]cyclopropyl]amino)methyl]phenyl]butyl) [(2S,3R,4R,5R)-2,3,4,5,6-pentahydroxyhexyl]carbamoyl]butanoic acid]	126 to 1000
COCCN(C[C@H](O)[C@@H](O)[C@H](O)[C@H](O)CO)C(=O)CCCCc1cc(Cl)c(COC2(c3cnccc3-c3ccccc3OC3CC3)CC2)cc1Cl [Compound I-127, 5-[2,5-dichloro-4-({1-[4-(2-cyclopropoxyphenyl)pyridin-3-yl]cyclopropoxy}methyl)phenyl]-N-(2-methoxyethyl)-N-[(2S,3R,4R,5R)-2,3,4,5,6-pentahydroxyhexyl]pentanamide]	< 100
O=C(CN1CCN(C(=O)CCCCc2cc(Cl)c(COC3(c4cnccc4-c4ccccc4OC4CC4)CC3)cc2Cl)CC1)NC[C@H](O)[C@@H](O)[C@H](O)[C@H](O)CO [Compound I-98, 2-(4-{5-[2,5-dichloro-4-({1-[4-(2-cyclopropoxyphenyl)pyridin-3-yl]cyclopropoxy}methyl)phenyl]pentanoyl}piperazin-1-yl)-N-[(2S,3R,4R,5R)-2,3,4,5,6-pentahydroxyhexyl]acetamide]	< 100
O=C(CCCCc1cc(Cl)c(COC2(c3cnccc3-c3ccccc3OC3CC3)CC2)cc1Cl)N[C@@H](CO)[C@@H](O)[C@H](O)[C@H](O)CO [Compound I-156, 5-[2,5-dichloro-4-({1-[4-(2-cyclopropoxyphenyl)pyridin-3-yl]cyclopropoxy}methyl)phenyl]-N-[(2S,3R,4S,5R)-1,3,4,5,6-pentahydroxyhexan-2-yl]pentanamide]	< 100
CC(C)N(CCCCc1cc(Cl)c(COC2(c3cnccc3-c3ccccc3OC3CC3)CC2)cc1Cl)C(=O)[C@@H](O)[C@@H](O)[C@H](O)[C@@H](O)CO (stereo in doubt) [Compound I-210, (2S,3S,4R,5S)-N-{4-[2,5-dichloro-4-({1-[4-(2-cyclopropoxyphenyl)pyridin-3-yl]cyclopropoxy}methyl)phenyl]butyl}-2,3,4,5,6-pentahydroxy-N-(propan-2-yl)hexanamide]	< 100
OC[C@@H](O)[C@@H](O)[C@H](O)[C@@H](O)CNCCCCc1cc(Cl)c(COC2(c3cnccc3-c3ccccc3OC3CC3)CC2)cc1Cl [Compound I-66, (2R,3R,4R,5S)-6-(4-(2,5-dichloro-4-((1-(4-(2-cyclopropoxyphenyl)pyridin-3-yl)cyclopropoxy)methyl)phenyl)butylamino)hexane-1,2,3,4,5-pentaol]	126 to 1000

The remaining lines, values ahead:

EC50 [nM]	SMILES
126 to 1000	CCc1ccc(SCCCC(=O)NC[C@H](O)[C@@H](O)[C@H](O)[C@H](O)CO)cc1COC1(c2cnccc2-c2ccccc2OC2CC2)CC1 [Compound I-497, 4-[[3-([l-[4-(2-Cyclopropoxyphenyl)pyridin-3-yl]cyclopropoxy]methyl)-4-ethylphenyl]sulfanyl]-N-[(2S,3R,4R,5R)-2,3,4,5,6-pentahydroxyhexyl]butanamide]
< 100	O=S(=O)(c1ccc(Cl)c(COC2(c3cnccc3-c3ccccc3OC3CC3)CC2)c1)N1CCCC1 [Compound I-395, 3-(1-{[2-chloro-5-(pyrrolidine-1-sulfonyl)phenyl]methoxy}cyclopropyl)-4-(2-cyclopropoxyphenyl)pyridine]
< 100	O=C(CCCC1CN(S(=O)(=O)c2ccc(Cl)c(COC3(c4cnccc4-c4ccccc4OC4CC4)CC3)c2)C1)NC[C@H](O)[C@@H](O)[C@H](O)[C@H](O)CO [Compound I-453, 4-{1-[4-chloro-3-({1-[4-(2-cyclopropoxyphenyl)pyridin-3-yl]cyclopropoxy}methyl)benzenesulfonyl]azetidin-3-yl}-N-[(2S,3R,4R,5R)-2,3,4,5,6-pentahydroxyhexyl]butanamide]
< 100	O=C(NCCCC1(c2ccc(Cl)c(CNC3(c4cnccc4-c4ccccc4OC4CC4)CC3)c2)CC1)NC[C@H](O)[C@@H](O)[C@H](O)[C@H](O)CO [Compound I-385, 1-[3-(1-{4-chloro-3-[({1-[4-(2-cyclopropoxyphenyl)pyridin-3-yl]cyclopropyl}amino)methyl]phenyl}cyclopropyl)propyl]-3-[(2S,3R,4R,5R)-2,3,4,5,6-pentahydroxyhexyl]urea]
126 to 1000	Cn1c(C(=O)NC[C@H](O)[C@@H](O)[C@H](O)[C@H](O)CO)cnc1SCc1ccc(Cl)c(COC2(c3cnccc3-c3ccccc3OC3CC3)CC2)c1 [Compound I-758, 2-((4-chloro-3-((1-(4-(2-cyclopropoxyphenyl)pyridin-3-yl)cyclopropoxy)methyl)benzyl)thio)-1-methyl-N-((2S,3R,4R,5R)-2,3,4,5,6-pentahydroxyhexyl)-1H-imidazole-5-carboxamide]
< 100	O=S(=O)(Nc1nccs1)c1ccc(Cl)c(COC2(c3cnccc3-c3ccccc3OC3CC3)CC2)c1 [Compound I-770, 4-chloro-3-((1-(4-(2-cyclopropoxyphenyl)pyridin-3-yl)cyclopropoxy)methyl)-N-(thiazol-2-yl)benzenesulfonamide]
126 to 1000	O=C([C@@H](O)[C@@H](O)[C@H](O)[C@@H](O)CO)N(CCCCSc1ccc(Cl)c(CNC2(c3cnccc3-c3ccccc3OC3CC3)CC2)c1)C1CCOCC1 [Compound I-535, (2S,3S,4R,5S)-N-[4-({4-chloro-3-[({1-[4-(2-cyclopropoxyphenyl)pyridin-3-yl]cyclopropyl}amino)methyl]phenyl}sulfanyl)butyl]-2,3,4,5,6-pentahydroxy-N-(oxan-4-yl)hexanamide]
< 100	O=C(NCCCCCS(=O)(=O)c1ccc(Cl)c(COC2(c3cnccc3-c3ccccc3OC3CC3)CC2)c1)N[C@@H](CO)[C@@H](O)[C@H](O)[C@H](O)CO [Compound I-643, 1-{5-[4-chloro-3-({1-[4-(2-cyclopropoxyphenyl)pyridin-3-yl]cyclopropoxy}methyl)benzenesulfonyl]pentyl}-3-[(2S,3R,4S,5R)-1,3,4,5,6-pentahydroxyhexan-2-yl]urea]

— patent US12084472B2 (Ardelyx, Inc., priority 2015, dated 2024)
